How the values were obtained:
[1] = target: T1, hEP4 (Homo sapiens, UniProt P35408); test: hEP4 cAMP assay; format: cell-based; details: HEK293 cells overexpressing hEP4; PGE2 agonist 20 nM; graded per Table 21; read-out: IC50 (nM) EP4 cAMP
T1 construct: expressed in transfected cells; host or cells: HEK293
Method: (§1) HEK293 cells overexpressing hEP4 were cultured in growth medium (GM: MEM (Gibco™, 11095080)/10% HI FBS (Gibco™, 10082147)/1% penicillin/streptomycin). Before the experiment, the growth medium was removed, and starvation medium (HBSS (Gibco™ 14025076)/10% GM) was added. Thereafter, the cells were incubated for 4 hours. HEK293 cells harboring hEP4 were detached from the culture dish with a non-enzymatic cell dissociation buffer (Gibco™, 15040066). The cells were resuspended in assay buffer (AB: HBSS, 0.1% BSA stabilizer, 0.5 mM IBMX, 5 mM HEPES).
(§2) 1,000 cells in 5 μL of AB were seeded per well in a 384 well plate (Corning®, 3570), and stock solutions of test compounds were prepared at a concentration of 1 mM in DMSO and serially diluted in DMSO to the concentration required for the inhibition dose response curve (test concentration range of 10 μM-0.001 nM). PGE2 (Sigma, P0409, stock solution: 100 μM) was used as an agonist at a final concentration of 20 nM corresponding to EC50-80. 2.5 μL of the diluted compound and 2.5 μL of PGE2 (20 nM final concentration) were transferred to the assay plate, and then the plate was incubated at room temperature for 18.5 minutes.
(§3) 5 μL of each donor (Eu-cAMP tracer) and acceptor (ULight-anti-cAMP) was added, and the plate was incubated in the dark for 1 hour at room temperature, and then a Varioskan LUX multimode microplate reader was used to obtain the results (excitation: 334 nm, emission: 615 and 665 nm). The resulting FRET fluorescence value (665 nm/615 nm*10000) was converted and then calculated as a percentage of cAMP compared to the DMSO control value. IC50 values and curves were generated with GraphPad Prism software using log (inhibitor) versus response-variable slope (4 parameters), and the median of multiple experiments was taken as the experiment result.

[2] = target: T2, hEP2 (Homo sapiens, UniProt P43116); test: hEP2 cAMP assay; format: cell-based; details: HEK293 cells overexpressing hEP2; PGE2 agonist 400 pM; graded per Table 21; read-out: IC50 (nM) EP2 cAMP
T2 construct: expressed in transfected cells; host or cells: HEK293
T2 sequence (P43116 whole entry): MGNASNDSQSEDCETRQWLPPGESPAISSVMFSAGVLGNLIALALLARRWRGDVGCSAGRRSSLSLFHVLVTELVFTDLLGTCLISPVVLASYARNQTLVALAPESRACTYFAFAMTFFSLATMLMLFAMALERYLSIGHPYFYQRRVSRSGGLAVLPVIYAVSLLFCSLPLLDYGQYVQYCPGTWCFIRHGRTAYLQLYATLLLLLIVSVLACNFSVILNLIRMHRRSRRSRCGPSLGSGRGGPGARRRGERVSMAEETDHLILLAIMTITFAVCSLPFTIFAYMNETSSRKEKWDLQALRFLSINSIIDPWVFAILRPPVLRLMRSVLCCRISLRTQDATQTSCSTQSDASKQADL
Method: as §1, with “overexpressing hEP2” for “overexpressing hEP4”, “(HBSS (Gibco™,” for “(HBSS (Gibco™”, “hours. The” for “hours.”, “harboring hEP2” for “harboring hEP4”
as §2, with “(Corning™,” for “(Corning®,”, “1” for “100”, “400 pM” for “20 nM”, “(400 pM” for “(20 nM”, “12” for “18.5”
as §3, with “relative” for “compared”, “slopes” for “slope”

T1 sequence (P35408 whole entry): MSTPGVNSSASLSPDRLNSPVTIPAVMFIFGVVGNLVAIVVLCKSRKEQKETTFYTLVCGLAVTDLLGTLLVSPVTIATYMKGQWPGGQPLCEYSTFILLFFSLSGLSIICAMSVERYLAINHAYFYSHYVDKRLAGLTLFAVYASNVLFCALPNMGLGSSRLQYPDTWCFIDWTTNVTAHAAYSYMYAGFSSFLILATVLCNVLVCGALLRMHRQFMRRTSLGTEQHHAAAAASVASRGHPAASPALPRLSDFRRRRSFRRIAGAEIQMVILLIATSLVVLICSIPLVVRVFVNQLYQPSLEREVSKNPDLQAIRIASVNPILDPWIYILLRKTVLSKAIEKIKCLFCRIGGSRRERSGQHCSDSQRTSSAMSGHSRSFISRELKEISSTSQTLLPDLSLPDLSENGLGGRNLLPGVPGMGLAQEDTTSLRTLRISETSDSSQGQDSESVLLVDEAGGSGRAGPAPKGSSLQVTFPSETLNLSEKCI

| Compound | IC50 [1] | IC50 [2] |
| --- | --- | --- |
| Cc1sc(C)c(C(=O)NC2CC3(C2)CC(C(=O)O)C3)c1Cc1ccc(-c2cc(F)cc(F)c2)cc1 (centres unmarked) [Example 52, 6-(4-((3′,5′-difluoro-[1,1′-biphenyl]-4-yl)methyl)-2,5-dimethylthiophene-3-carboxamido)spiro[3.3]heptane-2-carboxylic acid] | < 500 nM | 5000 to 10000 nM |
| Cc1sc(C)c(C(=O)NC2CC3(C2)CC(C(=O)O)C3)c1Cc1ccc(-c2ccccc2F)cc1 (centres unmarked) [Example 49, 6-(4-((2′-fluoro-[1,1′-biphenyl]-4-yl)methyl)-2,5-dimethylthiophene-3-carboxamido)spiro[3.3]heptane-2-carboxylic acid] | > 10000 nM | > 10000 nM |
| COc1cc(-c2ccc(Cc3c(C)sc(C)c3C(=O)NC3CC4(C3)CC(C(=O)O)C4)cc2)ccn1 (centres unmarked) [Example 50, 6-(4-(4-(2-methoxypyridin-4-yl)benzyl)-2,5-dimethylthiophene-3-carboxamido)spiro[3.3]heptane-2-carboxylic acid] | < 500 nM | > 10000 nM |
| Cc1sc(C)c(C(=O)NC2CC3(C2)CC(C(=O)O)C3)c1Cc1ccc(N2CCOCC2)cc1 (centres unmarked) [Example 9, 6-(2,5-dimethyl-4-(4-morpholinobenzyl)thiophene-3-carboxamido)spiro[3.3]heptane-2-carboxylic acid] | > 10000 nM | > 10000 nM |
| Cc1sc(C)c(C(=O)NC2CC3(C2)CC(C(=O)O)C3)c1Cc1ccc(-c2cnn(C)c2)cc1 (centres unmarked) [Example 39, 6-(2,5-dimethyl-4-(4-(1-methyl-1H-pyrazol-4-yl)benzyl)thiophene-3-carboxamido)spiro[3.3]heptane-2-carboxylic acid] | 500 to 5000 nM | > 10000 nM |
| Cc1sc(C)c(C(=O)NC2CC3(C2)CC(C(=O)O)C3)c1Cc1ccc(Oc2ccccc2)cc1 (centres unmarked) [Example 5, 6-(2,5-dimethyl-4-(4-phenoxybenzyl)thiophene-3-carboxamido)spiro[3.3]heptane-2-carboxylic acid] | 5000 to 10000 nM | > 10000 nM |
| Cc1sc(C)c(C(=O)NC2CC3(C2)CC(C(=O)O)C3)c1Cc1ccc(-c2cc(F)cc(C3CNC3)c2)cc1 (centres unmarked) [Example 65, 6-(4-((3′-(azetidin-3-yl)-5′-fluoro-[1,1′-biphenyl]-4-yl)methyl)-2,5-dimethylthiophene-3-carboxamido)spiro[3.3]heptane-2-carboxylic acid] | 500 to 5000 nM | > 10000 nM |
| Cc1sc(C)c(C(=O)NC2CC3(C2)CC(C(=O)O)C3)c1Cc1ccc(-c2ccc(OC(F)(F)F)cc2)cc1 (centres unmarked) [Example 42, 6-(2,5-dimethyl-4-((4′-(trifluoromethoxy)-[1,1′-biphenyl]-4-yl)methyl)thiophene-3-carboxamido)spiro[3.3]heptane-2-carboxylic acid] | 500 to 5000 nM | > 10000 nM |
| Cc1scc(C(=O)NC2CC3(C2)CC(C(=O)O)C3)c1Cc1ccc(-c2ccccc2)cc1 (centres unmarked) [Example 20, 6-(4-([1,1′-biphenyl]-4-ylmethyl)-5-methylthiophene-3-carboxamido)spiro[3.3]heptane-2-carboxylic acid] | < 500 nM | 500 to 5000 nM |
| COc1cc(-c2ccc(Cc3c(C)sc(C)c3C(=O)NC3CC4(C3)CC(C(=O)O)C4)cc2)cc(C2(O)COC2)c1 (centres unmarked) [Example 61, 6-(4-((3′-(3-hydroxyoxetane-3-yl)-5′-methoxy-[1,1′-biphenyl]-4-yl)methyl)-2,5-dimethylthiophene-3-carboxamido)spiro[3.3]heptane-2-carboxylic acid] | 500 to 5000 nM | > 10000 nM |
| COc1ccc(-c2ccc(Cc3c(C)sc(C)c3C(=O)NC3CC4(C3)CC(C(=O)O)C4)cc2)cc1F (centres unmarked) [Example 40, 6-(4-((3′-fluoro-4′-methoxy-[1,1′-biphenyl]-4-yl)methyl)-2,5-dimethylthiophene-3-carboxamido)spiro[3.3]heptane-2-carboxylic acid] | < 500 nM | 5000 to 10000 nM |
| Cc1sc(C)c(C(=O)NC2CC3(C2)CC(C(=O)O)C3)c1Cc1ccc(-c2ccoc2)cc1 (centres unmarked) [Example 33, 6-(4-(4-(furan-3-yl)benzyl)-2,5-dimethylthiophene-3-carboxamido)spiro[3.3]heptane-2-carboxylic acid] | < 500 nM | 500 to 5000 nM |
| Cc1sc(C)c(C(=O)c2ccc(-c3ccccc3)cc2)c1C(=O)NC1CC2(C1)CC(C(=O)O)C2 (centres unmarked) [Example 10, 6-(4-([1,1′-biphenyl]-4-carbonyl)-2,5-dimethylthiophene-3-carboxamido)spiro[3.3]heptane-2-carboxylic acid] | 500 to 5000 nM | > 10000 nM |

Next, values leading:

| IC50 [1] | IC50 [2] | Compound |
| --- | --- | --- |
| 500 to 5000 nM | > 10000 nM | COc1cc(CN)cc(-c2ccc(Cc3c(C)sc(C)c3C(=O)NC3CC4(C3)CC(C(=O)O)C4)cc2)c1 (centres unmarked) [Example 66, 6-(4-((3′-(aminomethyl)-5′-methoxy-[1,1′-biphenyl]-4-yl)methyl)-2,5-dimethylthiophene-3-carboxamido)spiro[3.3]heptane-2-carboxylic acid] |
| < 500 nM | 5000 to 10000 nM | O=C(NC1CC2(C1)CC(C(=O)O)C2)c1csc2ccn(Cc3ccc(-c4ccccn4)cc3)c12 (centres unmarked) [Example 104, 6-(4-(4-(pyridin-2-yl)benzyl)-4H-thieno[3,2-b]pyrrole-3-carboxamido)spiro[3.3]heptane-2-carboxylic acid] |
| < 500 nM | < 500 nM | COc1cccc(-c2ccc(Cn3ccc4scc(C(=O)NC5CC6(C5)CC(C(=O)O)C6)c43)cc2)c1 (centres unmarked) [Example 85, 6-(4-((3′-methoxy-[1,1′-biphenyl]-4-yl)methyl)-4H-thieno[3,2-b]pyrrole-3-carboxamido)spiro[3.3]heptane-2-carboxylic acid] |
| < 500 nM | < 500 nM | COc1cc(F)cc(-c2ccc(Cn3ccc4scc(C(=O)NC5CC6(C5)CC(C(=O)O)C6)c43)cn2)c1 (centres unmarked) [Example 110, 6-(4-((6-(3-fluoro-5-methoxyphenyl)pyridin-3-yl)methyl)-4H-thieno[3,2-b]pyrrole-3-carboxamido)spiro[3.3]heptane-2-carboxylic acid] |
| > 10000 nM | 500 to 5000 nM | Cc1cn(Cc2ccc(-c3ccccc3)cc2)c2c(C(=O)NC3CC4(C3)CC(C(=O)O)C4)csc12 (centres unmarked) [Example 81, 6-(4-([1,1′-biphenyl]-4-ylmethyl)-6-methyl-4H-thieno[3,2-b]pyrrole-3-carboxamido)spiro[3.3]heptane-2-carboxylic acid] |
| 5000 to 10000 nM | > 10000 nM | Cc1sc(C)c(C(=O)NC2CC3(C2)CC(C(=O)O)C3)c1Cn1cc(-c2ccccc2)cn1 (centres unmarked) [Example 78, 6-(2,5-dimethyl-4-((4-phenyl-1H-pyrazol-1-yl)methyl)thiophene-3-carboxamido)spiro[3.3]heptane-2-carboxylic acid] |
| > 10000 nM | > 10000 nM | Cc1sc(C)c(C(=O)NC2CC3(C2)CC(C(=O)O)C3)c1Cc1ccc(C2CCNCC2)cc1 (centres unmarked) [Example 68, 6-(2,5-dimethyl-4-(4-(piperidin-4-yl)benzyl)thiophene-3-carboxamido)spiro[3.3]heptane-2-carboxylic acid] |
| < 500 nM | 500 to 5000 nM | Cc1sc2ccn(Cc3ccc(-c4ccccc4)cc3)c2c1C(=O)NC1CC2(C1)CC(C(=O)O)C2 (centres unmarked) [Example 80, 6-(4-([1,1′-biphenyl]-4-ylmethyl)-2-methyl-4H-thieno[3,2-b]pyrrole-3-carboxamido)spiro[3.3]heptane-2-carboxylic acid] |
| < 500 nM | < 500 nM | O=C(N[C@H]1CC2(C1)C[C@H](C(=O)O)C2)c1csc2ccn(Cc3ccc(-c4ccccc4)cc3)c12 (single isomer, unassigned) [Example 79b] |

From patent US20230365582A1, “NOVEL COMPOUNDS HAVING INHIBITORY ACTIVITY ON PROSTAGLANDIN E2 RECEPTOR AND USES THEREOF” (KANAPH THERAPEUTICS INC., priority 2020, published 2023)
